How the values were obtained:
Hb = target: T1, Hb (Homo sapiens, UniProt P68871+P69905); assay: Whole blood assay: oxygen equilibrium curves (Hemox Analyzer), change in p50; type: cell-based; details: whole blood incubated 1 h at 37° C., equimolar ratio of hemoglobin to compound
T1 construct: from tissue; host or cells: whole blood
Method: Whole blood assay: Oxygen equilibrium curves (OECs) were collected using a TCS Hemox Analyzer (TCS Scientific Company, New Hope, Pa., USA) to measure changes in the binding affinity of O2 to Hb. Whole blood was incubated for 1 h at 37° C. with the indicated compounds in an equimolar ratio of hemoglobin to compound and diluted into TES (2-[[1,3-dihydroxy-2-(hydroxymethyl)propan-2-yl]amino]ethanesulfonic acid)/saline buffer prior to measurements. For example, for whole blood at 20% hematocrit [Hct], which corresponds to 1 mM Hb, a compound concentration of 1 mM was used (for example, for compounds 1-5), and the incubated sample diluted 50- to 100-fold. The concentration for compounds 6-44 (Diastereomers 1 and 2) varied but remained in equimolar ratio to hemoglobin. The diluted samples were then oxygenated with compressed air within the Hemox Analyzer and the OECs were collected during deoxygenation as previously described (Guarnone et al., Haematologica, 1995, 80, 426-430). p 50 (partial pressure of O2 at which Hb is 50% saturated with O2) values were obtained using a non-linear regression analysis. Percentage change in p50 [Δp50(%)] was calculated as follows: Δp50(%)=[(p50 of control)−p50 with compound)/p50 control]×100.

PXR nuclear receptor = target: T2, PXR nuclear receptor (Homo sapiens, UniProt O75469); assay: CYP (PXR) assay: PXR nuclear receptor activation in DPX2 reporter cells; type: cell-based; details: fold PXR activation, at 30 μM, 24 h
T2 construct: expressed in transfected cells; host or cells: DPX2 (stably transfected human hepatoma cells)
T2 sequence (O75469 1-434): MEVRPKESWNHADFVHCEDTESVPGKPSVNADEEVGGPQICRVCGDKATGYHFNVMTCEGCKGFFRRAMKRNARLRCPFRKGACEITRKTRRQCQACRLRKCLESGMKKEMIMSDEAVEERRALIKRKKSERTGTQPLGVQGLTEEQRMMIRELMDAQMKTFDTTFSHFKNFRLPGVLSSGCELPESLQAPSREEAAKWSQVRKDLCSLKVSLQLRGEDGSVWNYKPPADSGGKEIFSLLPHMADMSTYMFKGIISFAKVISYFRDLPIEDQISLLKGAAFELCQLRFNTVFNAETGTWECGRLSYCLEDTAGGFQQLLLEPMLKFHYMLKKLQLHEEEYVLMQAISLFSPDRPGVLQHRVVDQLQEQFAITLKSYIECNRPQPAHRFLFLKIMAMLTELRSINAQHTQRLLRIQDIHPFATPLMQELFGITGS
Method: CYP (PXR) Assay: PXR nuclear receptor activation utilizing stably-transfected human hepatoma cell lines (DPX2) were seeded in a 96-well plate. Twenty-four hours after seeding, the cells were treated with selected concentrations of compounds in duplicate wells, and cells then returned to the incubator for an additional 24 h. At the end of this incubation period, the number of viable cells/well were determined using Promega's Cell Titer Fluor cytotoxicity assay. Subsequently, Promega's ONE-Glo were added to the same wells and reporter gene activity were assessed. The average luminescent units for each compound dose of two replicates were divided by the average for the DMSO solvent control to determine the fold-induction. In accordance with industry standard, a threshold of ≥2.5-fold was used to flag compounds that have in vivo CYP induction risk.

Rat PK, oral gavage = type: in vivo, Sprague-Dawley rats; details: male, Sprague-Dawley, rat, po, 10 mg/kg, oral gavage 10 mg/kg
Method: Rat PK: A group of fasted male Sprague-Dawley rats were dosed via oral gavage at 10 mg/kg with test articles formulated in 0.5% methylcellulose suspension. Blood samples were collected through jugular vein at pre-selected time points. Blood samples were prepared by protein precipitation with ACN, vortexed and then centrifuged before supernatants were transferred for bioanalysis. Test article concentrations were measured by HPLC-MS-MS. Pharmacokinetic parameters were calculated using non-compartment analysis. The blood/plasma ratio was calculated by dividing the AUClast (i.e., the area under the curve calculated from t=0 to the last detectable time-point) in blood by the AUClast in plasma. The T1/2 was calculated via a linear regression of the terminal phase of the blood-time concentration profile.

T1 sequence (P69905 2-142 limits assumed): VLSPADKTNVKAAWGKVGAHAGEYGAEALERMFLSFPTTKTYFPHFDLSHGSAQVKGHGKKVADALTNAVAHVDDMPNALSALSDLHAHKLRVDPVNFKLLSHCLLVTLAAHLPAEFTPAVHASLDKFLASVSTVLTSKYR
T1 sequence (P68871 2-147 limits assumed): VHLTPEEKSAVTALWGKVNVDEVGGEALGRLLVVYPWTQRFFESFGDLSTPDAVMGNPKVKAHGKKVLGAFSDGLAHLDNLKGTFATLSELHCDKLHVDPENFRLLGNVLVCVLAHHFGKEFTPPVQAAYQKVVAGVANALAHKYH

For `O=Cc1c(O)cccc1OC[C@@H]1COCCN1C(=O)c1cccnc1CCO` [Compound 8, (S)-2-hydroxy-6-((4-(2-(2-hydroxyethyl)nicotinoyl)morpholin-3-yl)methoxy)benzaldehyde], the “Delta-p50 (%)” value (Hb) was 79.8%, the “CYP (PXR) Flag” value (PXR nuclear receptor) was “N (PXR activation < 2.5-fold)” and the blood plasma ratio (Rat PK, oral gavage; whole blood and plasma, AUClast in blood divided by AUClast in plasma, rats) was 105. For the same compound, the half-life (Rat PK, oral gavage; whole blood, fasted male Sprague-Dawley rats, 0.5% methylcellulose suspension, blood) was 69 h.

Reference: patent US11548880B2, “Modulators of hemoglobin” (Global Blood Therapeutics, Inc., priority 2018, dated 2023)
